Where two headings read alike, the source gives them in different places. Marks after values point to notes of the source that are not given here. Where a SMILES comes first, the peptide text is derived from it. The star is where a group is joined. Cbz = O=C(OCc1ccccc1)*
Legend:
HGPS fibroblast [1] = assay: Cell viability and assessment of toxicity (PrestoBlue, dose response); conditions: 72 hours of treatment
Description: (§2) Fibroblasts from HGPS donors from passage 18 to 24 were cultured in DMEM low glucose (Life Technologies, Courtabœuf, France) containing 15% FBS (Life Technologies), 2 mM L-glutamine (Life Technologies) and 100 U/mL penicillin-streptomycin (Life Technologies) at 37° C. in a humidified atmosphere containing 5% CO2.
(§3) All molecules were diluted in DMSO at 10 mM. Concentrations from 100 μM to 0.0001 nM were used to test cell viability in 96-well plates. Drug efficiency was evaluated in 6-well plates.
(§4) Assays were carried out in 96-well microplates. After 72 hours of treatment, the cells were washed once with 100 μL DPBS (no calcium, no magnesium). Then 100 μl of PrestoBlue solution (Life Technologies) diluted at 10% in DPBS was added to each well. Plates were incubated at 37° C. for 30 minutes. The fluorescence intensity was measured by multiwell plate reader (Glomax microplate reader, Promega, Charbonnières les Bains, France) using green filter (Excitation 525 nm/emission 580-640 nm). Fluorescence intensities values were pasted in Prism Software (Graph Pad, San Diego, CA) to perform a dose response analysis. CV25 correspond to drug concentrations at which HGPS fibroblast cell viability was 25%. CV75 correspond to drug concentrations at which HGPS fibroblast cell viability was 75%.

progerin = assay: Progerin expression by western blot, normalised to total protein (Revert protein stain); type: cell-based, human; conditions: T=72 hours, mean of n=3 unless footnoted; for Mean decrease of progerin expression relative to DMSO control: compounds tested at CV25, HGPS cells; for Mean change of progerin expression relative to DMSO control: compounds tested at CV75, HGPS cells, decrease (−) or increase
Description: All molecules were diluted in DMSO at 10 mM. […] Drug efficiency was evaluated in 6-well plates.
Total fibroblast proteins were extracted after 72 hours treatment in 100 μL of NP40 (Invitrogen) with 1× protease and phosphatase inhibitor cocktail (Life Technologies). Lysats were incubated on ice for 30 minutes, with vortexing at 10-minute intervals. Finally, they were sonicated four times (20 sec each) and then centrifuged at 13000 rpm for 10 minutes at 4° C.
Protein concentrations were determined with the BCA™ Protein Assay (Life Technologies).
Protein lysates were separated on Nupage Novex 4-12% Bis-Tris Midi precast gels (Life Technologies) and transferred to Immobilon-FL PVDF membranes (Millipore, Molsheim, France). Membranes were blocked for one hour in 1:1 diluted blocking buffer for near infrared fluorescent western blotting (Rockland, Le Perray, France). Blocked membranes were incubated with primary antibodies overnight at 4° C., following which they were washed and incubated with IR-Dye conjugated secondary antibodies for one hour at RT. Bound antibodies were detected and analyzed on an Odyssey imaging system (Li-COR Biosciences, Bad Homburg, Germany) according to the manufacturer's instructions. Revert Protein Stain (Li-COR Biosciences) was used as a total protein loading control in addition to two traditional protein loading control GAPDH and Actin. Progerin and SRSF1 levels were quantified and normalized by Revert staining using Image Studio Lite™ software developed by Li-COR.
The following antibodies were used in this study: rabbit monoclonal anti-lamin A/C (ab108922, 1/1000, Abcam, Amsterdam, Netherlands), rabbit monoclonal anti-SRSF1 (SF2) (ab129108, 1/1000, Abcam), mouse monoclonal anti-GAPDH (MAB374, 1/40000, Millipore, Molsheim, France) and mouse monoclonal anti-actin (MAB1501R, 1/10000, Millipore. Secondary antibodies conjugated with IR-Dye 800CW or 680 were used according to the manufacturer's instructions (926-32213 and 926-68072, 1/5000, Li-COR Biosciences).
(§1) Mean decrease of progerin expression (presented as a percentage of the concentration measured in DMSO control) with compounds tested at CV25, in HGPS cells at T=72 hours, determined by western blot analysis and normalised to the total amount of protein (Revert protein stain) (mean of n=3 (range)) is presented in the following Table 1:
as §1, with “change (decrease (−) or increase)” for “decrease”, “CV75,” for “CV25,”, “2: […]” for “1:”

HGPS fibroblast [2] = conditions: human, 72 h
Description: as §2, §3, §4

Compound	CV25 (HGPS fibroblast [1]; drug concentration at which HGPS fibroblast cell viability was 25%) [µM]	CV75 (HGPS fibroblast [1]; drug concentration at which HGPS fibroblast cell viability was 75%) [µM]	Mean decrease of progerin expression relative to DMSO control (progerin)	Mean change of progerin expression relative to DMSO control (progerin)	CV25 (HGPS fibroblast [2]) [µM]	CV75 (HGPS fibroblast [2]) [µM]
CC(C)C[C@@H](C=O)NC(=O)[C@H](CC(C)C)NC(=O)[C@H](CC(C)C)NC(=O)OCc1ccccc1 [Compound 1, Z-Leu-Leu-Leucinal, reference compound] (Cbz-Leu-Leu-Leu-aldehyde)	0.270	0.137	67* %	−3* %		
CC(=O)N[C@@H](CC(C)C)C(=O)N[C@@H](CC(C)C)C(=O)N[C@H](C=O)CC(C)C [Compound 3] (Ac-Leu-Leu-Leu-aldehyde)			71%	0%	1.800	0.720
CC(C)C[C@@H](C=O)NC(=O)[C@H](CC(C)C)NC(=O)[C@H](Cc1ccccc1)NC(=O)OCc1ccccc1 [Compound 4, Z-Phenylalanine-Leucine-Leucinal] (Cbz-Phe-Leu-Leu-aldehyde)			70%	−12%	0.402	0.133
CC(C)C[C@@H](C=O)NC(=O)[C@H](Cc1ccccc1)NC(=O)[C@H](CC(C)C)NC(=O)OCc1ccccc1 [Compound 6, Z-Leucine-Phenylalanine-Leucinal] (Cbz-Leu-Phe-Leu-aldehyde)			69%	6%	0.142	0.060
CC(C)C[C@@H](C=O)NC(=O)[C@H](CC(C)C)NC(=O)[C@H](CC(C)C)NC(=O)c1cnccn1 [Compound 7]			79%	−36%	5.5	2.1
CC(C)C[C@@H](C=O)NC(=O)[C@H](CC(C)C)NC(=O)[C@H](CC(C)C)NC(=O)Cc1ccc(F)cc1F [Compound 8]			47%	−16%	0.152	0.073
CC(C)C[C@@H](C=O)NC(=O)[C@H](CC(C)C)NC(=O)[C@H](CC(C)C)NC(=O)c1cc(Cl)ccc1Cl [Compound 12]			61** %	−1** %	0.063	0.001
CC(C)C[C@H](NC(=O)OCc1ccccc1)C(=O)N[C@@H](CC(C)C)C(=O)N[C@H](C(=O)N[C@H](C=O)Cc1ccc(O)cc1)C(C)C [Compound 13] (Cbz-LLVY-aldehyde)			68*** %	−29*** %	0.020	0.007
CC(C)C[C@@H](C=O)NC(=O)[C@H](CC(C)C)NC(=O)[C@H](CC(C)C)NC(=O)Cc1cccc(CC(=O)N[C@@H](CC(C)C)C(=O)N[C@@H](CC(C)C)C(=O)N[C@H](C=O)CC(C)C)c1 [Compound 14]			66%	−1%	0.589	0.155
CC(C)C[C@@H](/C=N/NC(N)=O)NC(=O)[C@H](CC(C)C)NC(=O)[C@H](CC(C)C)NC(=O)OCc1ccccc1 [Compound 16]			66%	0%	1.750	0.195
